Where “and” joins values, the source holds several entries; their conditions need not be identical. Identical values can stand only once. Like-named read-outs stand apart in the source and are kept apart here. Square brackets hold non-standard residues; d marks the D form. Ends that are not written are not given here. Cit = NC(=O)NCCC[C@H](N)C(=O)O

From patent publication US20230213527A1, “COMPOSITIONS AND METHODS FOR POLYPEPTIDE ANALYSIS” (Quantum-Si Incorporated, priority 2021, published 2023) come the findings set out here.

For assay [1], the system named is amino acid recognizers. Put plainly: Sequencing of β-amyloid wild type and variant peptides, average pulse width. The class given is binding. The settings on record: for Average Pulse Width, tripeptide LVX: when sequencing L. The source says: Aspects of the technology described herein may be used for protein preparation, peptide library preparation, peptide sequencing and peptide profiling of synthetic samples of ß-amyloid. In this example, the wild type (LVFFAE (SEQ ID NO: 827)) and variants (17LVFFAK22 (SEQ ID NO: 828), 17LVFFGK22 (SEQ ID NO: 829), 17LVFFAG22 (SEQ ID NO: 830), and 17LVPFAE22 (SEQ ID NO: 831)) of β-amyloid were digested and labeled for further analysis. Alternatively, β-amyloid may be purified from common sources, such as cerebrospinal fluid (CSF), for downstream analysis.
A chip including aspects of the technology described herein was used for the downstream sequencing of the sample material. The chip contained millions of wells, each of which acted as an independent sequencing machine. Once the sample was loaded, cloud technology was used to set up the sequencing run and collect all the data for visualization. Once collected in the cloud, a set of proprietary algorithms, which can identify amino acids based on the specialized optical pulse patterns of each binding event, determined the sequence of the peptide and mapped that sequence back to a specific protein or protein variant.
Here, the protein sequencing technology and analysis pipeline was successfully used to distinguish a variety of clinically significant ß-amyloid point mutations. The sequencing traces containing pulse patterns of the variants, 17LVFFAK22 (SEQ ID NO: 828), 17LVFFGK22 (SEQ ID NO: 829), 17LVFFAG22 (SEQ ID NO: 830), and 17LVPFAE22 (SEQ ID NO: 831), were compared to the wild type, 17LVFFAE22 (SEQ ID NO: 827). Software automatically identified pulses containing the same intensity, lifetime, and kinetics, which determined a recognition segment for a specific amino acid. Each recognition segment was color coded based on the N-terminal amino acid, and the collection of recognition segments provided a characteristic signature of the peptide.
Time domain sequencing functionality can observe sequence changes indirectly during peptide profiling. The specific PTMs and folding of each variant cause them to display distinctly different patterns, which can then be inferred via alterations in pulse width. For example, a point mutation in a sequence—at the N-terminal end, or at the penultimate and antepenultimate positions, of the peptide—can generate an altered pulse pattern, compared to another sequence.

Assay [2] has as its system PS1223. Put plainly: Dynamic single-molecule sequencing, recognition by PS1223. The settings on record: recognizer PS1223, recognition of the N-terminal amino acid. The class given is binding. As to the method:
Sequencing reactions using the recognizers PS610 (FYW), PS1220 (R), and PS1223 (LIV) were performed separately for the QP706 and QP1073 peptide fragments. Each recognizer was labeled with a unique dye and/or unique number of dyes. A scatter plot of bin ratio v. pulse duration is shown for the QP706 peptide fragment in FIG. 18A and for the QP1073 peptide fragment in FIG. 18B. In the plot of FIG. 18A, three clusters corresponding to FLE, LEQ, and RFL segments are visible. […] In the plot of FIG. 18B, two clusters corresponding to FLE and LEQ segments are visible, but there is no cluster corresponding to RFL.
In this example, sequencing reactions were conducted for 4 pairs of unmodified and citrullinated peptides: QP1028 & QP1029, QP1030 & QP1031, QP1032 & QP1033, and QP707 & QP789. […] For the QP1028 & QP1029 and QP1030 & QP1031 pairs, sequencing reactions were conducted using the PS610 (FYW) recognizer. For the QP1032 & QP1033 and QP707 & QP789 pairs, sequencing reactions were conducted using the PS1223 (LIV) recognizer.

The test system of assay [3] is PhTET2 and PhTET3. Put plainly: Aminopeptidase cleavage of N-terminal amino acids during dynamic sequencing (RS/NRS durations). Format: biochemical, P. horikoshii. The protocol:
To evaluate the kinetic principles of the dynamic sequencing method when applied to diverse sequences, the synthetic peptide DQQRLIFAG (SEQ ID NO: 794), corresponding to a segment of human ubiquitin, was characterized (FIGS. 3A-3D). Sequencing reactions were performed using a combination of three differentially-labeled recognizers—PS610, PS961, and PS691—and two aminopeptidases—PhTET2 and PhTET3 (Materials and Methods). The example trace in FIG. 3A starts with an NRS that corresponds to the time interval during which residues in the initial DQQ motif are present at the N-terminus. The first RS starts at 120 min, upon exposure of N-terminal arginine to recognition by PS691. Subsequent cleavage events sequentially expose N-terminal leucine, isoleucine, and phenylalanine to their corresponding recognizers, with fast transitions (average <10 s) from one RS to the next. The transition from leucine to isoleucine recognition by PS961 is readily identified as a sharp change in average PD. This overall pattern is replicated across many instances of sequencing of the same peptide, with similar PD statistics across traces, as each peptide molecule follows the same reaction pathway over the course of the sequencing run (FIGS. 3B-3C).
The distribution of RS durations across an ensemble of replicate traces defines the rate of cleavage of each recognizable NAA. […] The distribution of NRS durations reports the cleavage rate of a run of one or more non-recognized NAAs. The average NRS duration for the initial DQQ motif was 153 min (FIG. 3D). Average cleavage rates are a key parameter and are controlled by the aminopeptidase concentration in the assay (FIGS. 8D-8E). Given the exponential behavior, average RS durations of 10 to 40 min were targeted to provide sufficient time for pulsing data collection, avoid missed RSs due to rapid cleavage, and minimize excessively long RS durations. It was found helpful to visualize the sequencing profiles of peptides as kinetic signature plots—simplified trace-like representations of the time course of complete peptide sequencing containing the median PD for each RS, and the average duration of each RS and NRS (FIG. 3E). These highly characteristic features provide a wealth of sequence-dependent information for mapping traces from peptides to their proteins of origin.
A second chip check was then performed. […] Data was recorded for 15 min.

For assay [4], the system named is PS610. Put plainly: Dynamic single-molecule sequencing, recognition by PS610. The class given is binding, A. tumefaciens. The settings on record: peptide LAQFASIAAYASDDD, PS610 and PS961, PhTET2 and PhTET3. As to the method:
The semiconductor chip was placed in the sequencing device and a chip check was performed to test electronic circuit function and to optimize laser coupling alignment. The chip was then removed from the device socket and the chip was washed twice with 50 μL of 70% isopropanol, followed by four washes with 30 μL of wash buffer (50 mM MOPS pH 8.0, 60 mM potassium acetate, 50 mM glucose, 20 mM magnesium acetate, and surfactant mix) through a flow cell attached to the chip. A second chip check was then performed. […] The chip was then washed six times with wash buffer, followed by addition of an imaging solution (wash buffer with 5 mM Trolox and an oxygen scavenging system). The laser was unblocked and the occupancy percentage (target 10-30%, Poisson distributed) was recorded by acquiring a photobleaching signal from a fluorophore attached to the peptide complex during 5 min of laser illumination. […] The laser was then blocked briefly and aminopeptidases were added to the sequencing reaction via the flow cell and mixed thoroughly (final concentration 2-8 μM PhTET2 and/or 20-80 μM PhTET3, as indicated according to the experiment). The laser was then unblocked, and data was recorded for 10 hours. For all runs, 30 μL of mineral oil was added to fluid reservoirs at each port of the flow cell to prevent evaporation during the run.
(§1) The measured signal on-chip comprises various noise components, the most dominant one being due to fluorescent emissions from diffusing recognizers in the reaction chamber. The pulse caller algorithm for a given reaction chamber starts by estimating the statistical properties of this background noise component. Once an estimate within certain error bounds has been established, the algorithm works in an online fashion observing new frames of data as they are generated. At each point in time, the algorithm maintains state indicating whether the signal is due to the background component only or a pulse from a recognizer-NAA interaction is being observed. The state transition from background to pulse is triggered using an edge detection test where the shift in signal is expected to be significant with respect to the background component's statistical distribution. The state transition from pulse to background is triggered when a small window of the most recent frames of the signal appears to conform to the background component's distribution again. The algorithm maintains an updated model of the background component as new background frames are observed. This provides robustness against drift in the signal intensity together with a feedback control loop that maintains a stable optical coupling of the laser into the chip based on any such detected drift. As detected pulses can be due to true recognizer-to-dipeptide interaction events as well as other occasional transient noise spikes, a downstream filter layer is employed to test the significance of pulse events based on their duration, intensity, and noise patterns within the context of the full timeline of the run and the entire dataset of reaction chambers.
Initial regions are determined by performing a sliding window calculation of pulse rate along the time dimension of a series of pulses. Regions with a mean pulse rate >1 pulse/min are then subdivided according to a greedy bisection approach. Here, the pulses on the left and right of each potential split are assessed for statistically significant deviation in any of four separate pulse properties—intensity, bin ratio, pulse duration, and interpulse duration—using a Mann-Whitney U Test. To define RSs, the split point with the lowest p-value for any of the four properties is used to sub-divide the region and the process continues until no regions remain with a candidate split point with p-value <10^−5 in any comparison. In this manner, transitions from one RS to the next in a region of continuous pulsing are determined a priori on the basis of changes in fluorescence properties of pulsing kinetics.

For assay [5], the system named is PS961. Put plainly: Dynamic single-molecule sequencing, recognition by PS961. Format: binding, Planctomycetes. The settings on record: peptide LAQFASIAAYASDDD, PS610 and PS961, PhTET2 and PhTET3. The protocol: The semiconductor chip was placed in the sequencing device and a chip check was performed to test electronic circuit function and to optimize laser coupling alignment. The chip was then removed from the device socket and the chip was washed twice with 50 μL of 70% isopropanol, followed by four washes with 30 μL of wash buffer (50 mM MOPS pH 8.0, 60 mM potassium acetate, 50 mM glucose, 20 mM magnesium acetate, and surfactant mix) through a flow cell attached to the chip. A second chip check was then performed. The laser was then blocked via an integrated software-controlled shutter, peptide complex was added to a final concentration of 1-10 nM and mixed thoroughly, and the chip was incubated for 15 min. The chip was then washed six times with wash buffer, followed by addition of an imaging solution (wash buffer with 5 mM Trolox and an oxygen scavenging system). The laser was unblocked and the occupancy percentage (target 10-30%, Poisson distributed) was recorded by acquiring a photobleaching signal from a fluorophore attached to the peptide complex during 5 min of laser illumination. For NAA recognition-only assays, after peptide loading, labeled recognizer was added to a final concentration of 50 nM PS610, 100 nM PS691, or 250 nM PS961 (as indicated according to the experiment), and data was recorded for 10 hours. For dynamic sequencing assays, after peptide loading, a mixture of labeled recognizers was added to obtain final concentrations of 50 nM PS610, 100 nM PS691, and 250 nM PS961. Data was recorded for 15 min. The laser was then blocked briefly and aminopeptidases were added to the sequencing reaction via the flow cell and mixed thoroughly (final concentration 2-8 μM PhTET2 and/or 20-80 μM PhTET3, as indicated according to the experiment). The laser was then unblocked, and data was recorded for 10 hours. For all runs, 30 μL of mineral oil was added to fluid reservoirs at each port of the flow cell to prevent evaporation during the run.
as §1
Initial regions are determined by performing a sliding window calculation of pulse rate along the time dimension of a series of pulses. Regions with a mean pulse rate >1 pulse/min are then subdivided according to a greedy bisection approach.

Where [6] appears, read: RS duration across replicate traces.

Chain of PS1223 (as listed by the source): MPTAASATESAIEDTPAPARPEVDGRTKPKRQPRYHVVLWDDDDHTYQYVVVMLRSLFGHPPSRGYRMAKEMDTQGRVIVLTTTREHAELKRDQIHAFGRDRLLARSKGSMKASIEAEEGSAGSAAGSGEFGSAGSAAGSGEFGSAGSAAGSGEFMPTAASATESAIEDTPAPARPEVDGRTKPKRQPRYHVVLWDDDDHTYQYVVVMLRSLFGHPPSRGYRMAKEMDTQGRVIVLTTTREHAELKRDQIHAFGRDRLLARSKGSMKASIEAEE
Chain of PS961 (as listed by the source): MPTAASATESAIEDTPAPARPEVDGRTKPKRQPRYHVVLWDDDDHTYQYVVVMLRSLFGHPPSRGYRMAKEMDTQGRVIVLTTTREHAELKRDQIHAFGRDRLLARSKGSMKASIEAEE

“E22Q: β-amyloid variant, tripeptide FAQ (Amyloid-beta protein 42; UniProt P05067 691-693, looked up, fragment E22Q) [Peptide E22Q]”: in assay [1], the “Average Pulse Width, tripeptide FXX” value is 2.67 (FAQ) seconds.

Turning to IRLAFAYPDDDK [QP1032], the “Pulse Width” value in assay [2] is 0.58 s.

In the case of “ICitLAFAYPDDDK (I[Cit]LAFAYPDDDK-NH2; also: C-terminal azidolysine (general statement for all synthetic peptides)) [QP1033]”, the “Pulse Width” value in assay [2] was 0.84 s.

For “DQQRLIFAG [synthetic peptide corresponding to a segment of human ubiquitin]”, in assay [3], the “Average NRS duration for the initial DQQ motif” value is reported as 153 min. In assay [3] (setting [6]), the “Average cleavage time, N-terminal arginine” value stood at 31 min; the “Average cleavage time, N-terminal isoleucine” value is listed as 39 min; the “Average cleavage time, N-terminal leucine” value was 54 min; the “Average cleavage time, N-terminal phenylalanine” value was 86 min.

As to “LVPFAE [Peptide F19P, β-amyloid variant]”, the “Average Pulse Width, tripeptide LVX” value in assay [1] is 1.86 seconds and 1.86 (LVP) seconds.

Consider “LVFFAK [Peptide E22K, β-amyloid variant]”, for which, in assay [1], the “Average Pulse Width, tripeptide FXX” value is 2.79 (FAK) seconds.

With “LVFFAG [Peptide E22G, β-amyloid variant]”, in assay [1], the “Average Pulse Width, tripeptide FXX” value is listed as 2.99 (FAG) seconds.

Consider LAQFASIAAYASDDD, for which the entries for the “Median PD” value in assay [4] (listed as FAS), in assay [4] (listed as YAS) and in assay [5] were 1.43 s, 0.66 s and 2.70 s, respectively.

LVFFAE [WT, β-amyloid wild type]: in assay [1], the “Average Pulse Width, tripeptide FXX” value is reported as 2.43 (FAE) seconds and the “Average Pulse Width, tripeptide LVX” value was 3.26 (LVF) seconds. Moreover, in assay [1] (listed as wild type), the “Average Pulse Width, tripeptide FXX” value came to 2.43 s and the “Average Pulse Width, tripeptide LVX” value came to 3.26 s.
